Two compounds from patent US11203772B2, “Chemoenzymatic synthesis of structurally homogeneous ultra-low molecular weight heparins” (The University of North Carolina at Chapel Hill, priority 2010, dated 2021) can be followed below.

The structures appear in SMILES notation.

Data set [1] deals with factor Xa. To be noted: rabbit, in vivo, sc, 120 ug/kg.
In data set [2] the test system is factor Xa. Put plainly: Anticoagulant activity in vivo: anti-Xa activity of rabbit plasma samples. Particulars: rabbits, subcutaneous, 120 μg/kg; compared with one another.
A further data set concerns bovine factor Xa. Put plainly: Inhibition of factor Xa activity (anti-Xa, chromogenic substrate S-2765, with AT). Format: biochemical. To be noted: with human AT, read-out: IC50 value, in vitro anti-Xa activity. The procedure: Inhibition effect of the ULMW heparin compounds on the activity of factor Xa. Assays were based on a previously published method (Zhang et al., 2001; Duncan et al., 2004). Briefly, bovine factor Xa (Sigma, St. Louis, Mo., United States of America) was diluted to 5 U/ml with PBS containing 1 mg/ml BSA. Human AT (Cutter Biological) was diluted with PBS containing 1 mg/ml BSA to give a stock solution at the concentration of 27 μM. The chromogenic substrates, S-2765 was from Diapharma and made up at 1 mM in water. The oligosaccharide (ARIXTRA® synthetic ULMW heparin pentasaccharide, ULMW heparin construct 1 and 2) was dissolved in PBS at various concentrations (0.5 to 50 nM). The reaction mixture, which included 25 μl of AT stock solution and 25 μl of the solution containing the sample, was incubated at 37° C. for 2 min. Factor Xa (25 μl) was added. After incubating 37° C. for 4 min, 25 μl of S-2765 was added. The absorbance of the reaction mixture was measured at 405 nm continuously for 10 min. The absorbance values were plotted against the reaction time. The initial reaction rates as a function of concentration were used to calculate the IC50 values.
The activity of Xa was determined by the rate of the increase of the absorbance at 405 nm. The activity without drugs was defined as 100%. […]

The target of a further data set is T1, antithrombin (AT) (Homo sapiens, UniProt P01008).
T1 construct: purchased Cutter Biological
T1 sequence (P01008 33-464): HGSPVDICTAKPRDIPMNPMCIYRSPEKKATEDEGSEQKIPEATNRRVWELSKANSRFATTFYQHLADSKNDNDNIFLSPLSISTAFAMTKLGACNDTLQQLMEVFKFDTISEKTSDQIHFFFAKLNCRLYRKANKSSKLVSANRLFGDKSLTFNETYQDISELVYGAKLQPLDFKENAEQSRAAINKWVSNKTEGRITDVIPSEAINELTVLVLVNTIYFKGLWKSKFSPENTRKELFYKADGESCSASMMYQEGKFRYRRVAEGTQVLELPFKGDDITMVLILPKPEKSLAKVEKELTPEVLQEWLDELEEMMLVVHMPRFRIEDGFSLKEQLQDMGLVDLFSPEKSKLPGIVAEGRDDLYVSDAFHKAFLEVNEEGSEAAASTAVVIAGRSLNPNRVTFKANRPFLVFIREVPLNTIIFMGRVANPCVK
Put plainly: Binding to antithrombin (AT) by affinity coelectrophoresis. Particulars: affinity co-electrophoresis, 35S-labeled compound. The method, then: The dissociation constant (Kd) of each sample and AT was determined using affinity co-electrophoresis (Lee & Lander, 1991). Approximately 4000-5000 cpm of antithrombin-binding ^35S-labeled ULMW heparin construct 1 or 2 was loaded per lane with zones of AT at concentrations 0, 4, 8, 16, 32, 60, 120, 240 and 500 nM. The gel was performed at 400 mA for 2 hours, dried and analyzed on a Phospholmager Storm 860 (Amersham Biosciences, Uppsala, Sweden). The retardation coefficient was calculated at R=(M0-M)/M0, where M0 is the mobility of the polysaccharide through the zone without AT, and M is the mobility of the sample through each separation zone. The retardation coefficient was then plotted against the retardation coefficient divided by its respective concentration of AT. The slope of the line represents −1/Kd.

What is called IC50 is the concentration that inhibits the measured activity by half. On to `CO[C@H]1O[C@H](COS(=O)(=O)O)[C@@H](O[C@@H]2O[C@@H](C(=O)O)[C@@H](O[C@H]3O[C@H](COS(=O)(=O)O)[C@@H](O[C@@H]4O[C@H](C(=O)O)[C@@H](O[C@H]5O[C@H](COS(=O)(=O)O)[C@@H](O)[C@H](O)[C@H]5NS(=O)(=O)O)[C@H](O)[C@H]4O)[C@H](OS(=O)(=O)O)[C@H]3NS(=O)(=O)O)[C@H](O)[C@H]2OS(=O)(=O)O)[C@H](O)[C@H]1NS(=O)(=O)O` [ARIXTRA®, fondaparinux sodium, reference compound], for which the “area under the curve (AUC), anti-Xa activity of plasma samples” value in the data set with factor Xa [1] was determined as 457. Further, the “pharmacodynamic (PD) profiles” value in the data set with factor Xa [2] is reported as “very similar”. In addition, the IC50 with bovine factor Xa worked out at 3 nM.
The Kd is a measure of binding affinity in units of concentration. With `O=C(O)C1OC(OC2C(COS(=O)(=O)O)OC(OC3C(C(=O)O)OC(OC4C(COS(=O)(=O)O)OC(OC5C(C(=O)O)OC(OC6C(CO)OC(CO)C6O)C(O)C5O)C(NS(=O)(=O)O)C4O)C(OS(=O)(=O)O)C3O)C(NS(=O)(=O)O)C2OS(=O)(=O)O)C(O)C(O)C1OC1OC(COS(=O)(=O)O)C(O)C(O)C1NS(=O)(=O)O` (stereo not shown) [construct 2], the “area under the curve (AUC), anti-Xa activity of plasma samples” value in the data set on factor Xa [1] is 802. Further, the “pharmacodynamic (PD) profiles” value in the data set with factor Xa [2] is given as “very similar”. Also, the IC50 with bovine factor Xa was 3.6 nM. This compound also came in with a Kd at antithrombin (AT) of 9.1 ± 0.2 nM.
